In US20220361555A1, “INHIBITION OF UNDESIRED SENSORY EFFECTS BY THE COMPOUND CAMPHOR” (priority 2010, published 2022):
Where “and” joins values, the source holds several entries; their conditions need not be identical. Equal entries are not always repeated. Entries after “also recorded” stand apart in the source; their conditions may differ.

What was measured:
nerve fibers = conditions: isolated mouse trachea model, Kichko et al.; cited from earlier work
[1] = tested on: mouth of subjects using oral tobacco; experiment: Snus pouches with camphor, perceived burning in the mouth (2AFC); type: in vivo, human; conditions: snus pouch
Protocol: A further study was conducted to determine if camphor affected perceived burning in the mouth of subjects using oral tobacco. Participants were given two snus pouch samples to use simultaneously, one in each side of the mouth. One sample was a control pouch with no camphor added and the other contained various concentrations of camphor (2.3, 6, 12, 23, 46, and 69 nanograms, corresponding to […], based on tobacco weight, respectively).
The hand-made test samples were constructed using unflavored tobacco (12% oven volatiles) to prevent any possible interference of the flavor system with the objective of the study. In preparing the pouches, the camphor was dissolved in 95% ethanol, with the control pouches receiving the ethanol only. […]
After two (2) minutes, five (5) minutes, and ten (10) minutes of using the samples, participants were asked to indicate which side of the mouth was burning more. Responses were recorded on paper by the experimenter. […] Following each evaluation, participants were asked to give details regarding where the burning was felt and to provide any open-ended comments regarding their experience, which were recorded on paper by the experimenter. Participants repeated the sensory evaluation procedures an additional six (6) times, with a maximum of two (2) pairs being evaluated each day.

participants (mouth) = experiment: Determination of irritation threshold of camphor solution in the mouth; type: in vivo, human; set-up: key to irritation perceived: Y: the participant felt irritation at the indicated concentration; N: no irritation was felt; conditions: for irritation perceived: 2 ml solution swished 10 seconds
Protocol: A further study was conducted to determine the threshold at which camphor itself would cause sensory irritation.
Each test used two milliliters (2 ml) of a camphor solution. The camphor was dissolved in ethanol and further diluted in water. Participants received sequentially increasing concentration of camphor. Nine participants received samples including food grade racemic camphor, with concentrations of 200, 300, 400, […] 1000, 2000, 4000, 6000 ppm (corresponding to about […] per sample, respectively).
Participants wore nose clips during evaluation. Each participant sipped the sample, swished it in the mouth for 10 seconds, then spat it out. Each participant then indicated whether irritation was perceived. Between evaluations of each sample, participants rinsed with water and waited for one minute.
The left-most column indicates the participant number of each individual participant.

[2] = tested on: tongues of 18 participants; experiment: Camphor in NEOBEE oil carrier pretreatment, burning sensation from nicotine strips; type: in vivo, human; set-up: Difference from control (burning from nicotine): scale not given here
Protocol: Camphor pretreatment was performed using two taste strips applied bilaterally (blinded, randomized) on the tongues of 18 participants. Test strips had 250 microliters of NEOBEE oil carrier with camphor concentrations of C ranging from 300 ppm to 1800 ppm. Control strips contained 250 microliters of carrier only (NEOBEE Oil). The pretreatment time was about 30 seconds. Participants then removed the taste strips and nicotine strips were placed in treated area. The nicotine was provided in an amount of 730 micrograms in 50 microliters for about 30 seconds. Each nicotine strip was then removed, followed by sensory evaluation of burning immediately, at 30 seconds, and 2 minutes. For sensory evaluation, 2 AFC and sensory irritation intensity ratings were generated.
A repeated measures analysis of variance (ANOVA) model was applied to analyze the data. The model includes terms for study participant, study time and concentration of camphor (see the Table 1). The SAS procedure “PROC MIXED” was used. The p value was for the comparison between each concentration with the control. The chi squared test was used for calculating significance for forced choice values.

acetylcholine receptors = conditions: by inhibiting acetylcholine receptors, Park et al.; cited from earlier work
[3] = tested on: tongues of human volunteers; experiment: Pre-treatment with camphor (ethanol/water solution on a strip) on sensory irritation from nicotine; type: in vivo; conditions: 25, 50 or 100 ppm camphor on a strip for 30 seconds, then 0.1-0.3% nicotine; immediately and 30 seconds after initial exposure
Description: FIGS. 1 and 2 show the results of a study on the effect of pre-treatment with camphor on sensory irritation from nicotine. Camphor was applied to tongues of human volunteers prior to application of a nicotine solution. Randomized sides of tongues were selected for application of 20 microliters of 0 ppm, 25 ppm, 50 ppm, or 100 ppm of camphor from an ethanol/water solution on a strip (thus, about […], respectively) for 30 seconds. Then, the subjects sipped, rinsed, then spit 0.1%, 0.2%, or 0.3% of a nicotine solution for a 5 second application. Participants were then asked which side of the tongue has the strongest burning sensation. Responses were collected both immediately (within 5 seconds) (FIG. 1) and after 30 seconds (FIG. 2). Controls received no camphor, and a baseline was established at zero camphor.

[4] = Sensory effect of camphor in mineral oil in smokeless tobacco products; type: in vivo

SMILES: CC12CCC(CC1=O)C2(C)C (racemic) [camphor]
- activation of nerve fibers induced by nicotine (nerve fibers): effectively inhibit activation of nerve fibers
- time at which the effect on oral burning was strongest ([1]; asked at 2, 5 and 10 minutes): 10 min
- quantity of camphor most effective in reducing oral burning ([1]; printed as corresponding to 50 ppm): 12 nanogram
- irritation perceived (participants (mouth); 200 ppm camphor, one line per participant): Y (3×) and N (6×)
- irritation perceived (participants (mouth); 300 ppm camphor, one line per participant): Y (3×) and N (6×)
- irritation perceived (participants (mouth); 400 ppm camphor, one line per participant): Y (4×) and N (4×)
- irritation perceived (participants (mouth); 500 ppm camphor, one line per participant): N (3×) and Y (3×)
- irritation perceived (participants (mouth); 1000 ppm camphor, one line per participant): N and Y (2×)
- irritation perceived (participants (mouth); 2000 ppm camphor, one line per participant): Y
- irritation perceived (participants (mouth); 4000 ppm camphor, one line per participant): Y
- irritation perceived (participants (mouth); 6000 ppm camphor, one line per participant): Y
- mean threshold for producing irritation (participants (mouth); n=9): 655 ppm
- Notes (sensation described by participant) (participants (mouth); one line per participant, first line given): Very slight tingling at 200,; also recorded: Felt slight tingling at 2000,; also recorded: Felt some tingling at 1000,; also recorded: Tingling at 300, tingling no; also recorded: Slight tingling and burning at; also recorded: No Burning, slight tingling on; also recorded: Some burning at 200, stronger; also recorded: Felt slight tingling at 500,; also recorded: Some burning and stinging at
- sensory irritation from nicotine versus control ([2]; 600 ppm, 900 ppm and 1200 ppm camphor, immediately, at 30 seconds and at 120 seconds after nicotine): significant reduction in sensory irritation from nicotine
- Difference from control (burning from nicotine) ([2]; study time 0 sec, camphor 300 ppm in NEOBEE oil): 4.31
- Difference from control (burning from nicotine) ([2]; study time 0 sec, camphor 600 ppm in NEOBEE oil): −24.03
- Difference from control (burning from nicotine) ([2]; study time 0 sec, camphor 900 ppm in NEOBEE oil): −22.64
- Difference from control (burning from nicotine) ([2]; study time 0 sec, camphor 1200 ppm in NEOBEE oil): −19.99
- Difference from control (burning from nicotine) ([2]; study time 0 sec, camphor 1500 ppm in NEOBEE oil): −8.62
- Difference from control (burning from nicotine) ([2]; study time 0 sec, camphor 1800 ppm in NEOBEE oil): 7.29
- Difference from control (burning from nicotine) ([2]; study time 30 sec, camphor 300 ppm in NEOBEE oil): −1.67
- Difference from control (burning from nicotine) ([2]; study time 30 sec, camphor 600 ppm in NEOBEE oil): −18.00
- Difference from control (burning from nicotine) ([2]; study time 30 sec, camphor 900 ppm in NEOBEE oil): −19.72
- Difference from control (burning from nicotine) ([2]; study time 30 sec, camphor 1200 ppm in NEOBEE oil): −14.30
- Difference from control (burning from nicotine) ([2]; study time 30 sec, camphor 1500 ppm in NEOBEE oil): −11.11
- Difference from control (burning from nicotine) ([2]; study time 30 sec, camphor 1800 ppm in NEOBEE oil): 5.25
- Difference from control (burning from nicotine) ([2]; study time 120 sec, camphor 300 ppm in NEOBEE oil): −2.12
- Difference from control (burning from nicotine) ([2]; study time 120 sec, camphor 600 ppm in NEOBEE oil): −13.80
- Difference from control (burning from nicotine) ([2]; study time 120 sec, camphor 900 ppm in NEOBEE oil): −17.69
- Difference from control (burning from nicotine) ([2]; study time 120 sec, camphor 1200 ppm in NEOBEE oil): −11.93
- Difference from control (burning from nicotine) ([2]; study time 120 sec, camphor 1500 ppm in NEOBEE oil): −2.38
- Difference from control (burning from nicotine) ([2]; study time 120 sec, camphor 1800 ppm in NEOBEE oil): 2.16
- norepinephrine release from adrenal gland cells (acetylcholine receptors): inhibit norepinephrine release
- perceived burning from nicotine after pre-treatment with camphor [3]: significantly reduced perceived burning from nicotine
- concentration of camphor that does not exhibit a sensory effect of its own (smell, taste, extensive cooling) [4]: less than 1300 ppm
